# From ChEMBL document CHEMBL4622851, “Cytotoxicity of 4-substituted quinoline derivatives: Anticancer and antileishmanial potential” (Bioorg Med Chem, 2020)
# The source made the active and inactive calls. The calls are words filed in the database; no cut-off is given here.
# Key:
# SK-MEL-147 [1] = test: Cytotoxicity against human SK-MEL-147 cells assessed as reduction in cell viability at 50 and 100 uM after 24 hrs by MTT assay; assay type: functional, cell-based
# Jurkat [2] = test: Cytotoxicity against human Jurkat cells assessed as reduction in cell viability at 50 and 100 uM after 24 hrs by MTT assay; assay type: functional, cell-based
# SK-MEL-147 [3] = test: Cytotoxicity against human SK-MEL-147 cells assessed as reduction in cell viability after 24 hrs by MTT assay; assay type: functional, cell-based; settings: SK-MEL-147, 24 h
# Jurkat [4] = test: Cytotoxicity against human Jurkat cells assessed as reduction in cell viability after 24 hrs by MTT assay; assay type: functional, cell-based
# Cysteine proteinase B [5] = molecular target: T1, Cysteine proteinase B (Leishmania mexicana, UniProt P36400); test: Inhibition of Leishmania mexicana rCPB2.8 using Z-FR-AMC as substrate by spectrofluorometric analysis
# T1 sequence (P36400 whole entry): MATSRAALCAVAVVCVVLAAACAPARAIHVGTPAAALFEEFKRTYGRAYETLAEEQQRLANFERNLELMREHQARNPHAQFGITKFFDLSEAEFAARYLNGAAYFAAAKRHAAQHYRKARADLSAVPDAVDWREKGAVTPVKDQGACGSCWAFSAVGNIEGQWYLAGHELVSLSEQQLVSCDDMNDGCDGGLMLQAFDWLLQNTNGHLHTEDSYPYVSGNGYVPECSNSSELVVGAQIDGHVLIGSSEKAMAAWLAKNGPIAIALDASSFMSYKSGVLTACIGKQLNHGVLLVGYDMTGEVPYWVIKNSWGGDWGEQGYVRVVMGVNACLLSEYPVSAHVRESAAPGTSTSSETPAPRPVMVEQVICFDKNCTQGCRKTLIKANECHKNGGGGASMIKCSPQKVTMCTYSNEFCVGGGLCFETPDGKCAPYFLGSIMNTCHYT
# [6] = Inhibition of Leishmania mexicana rCPB3.0 using Z-FR-AMC as substrate by spectrofluorometric analysis
# [7] = Inhibition of Leishmania mexicana rCPB3.0 H84Y mutant using Z-FR-AMC as substrate by spectrofluorometric analysis
# Cysteine proteinase B [8] = molecular target: T1, Cysteine proteinase B; test: Inhibition of Leishmania mexicana rCPB2.8 assessed as inhibition constant using Z-FR-AMC as substrate preincubated for 10 mins followed by substrate addition by Lineweaver-Burk double reciprocal plot analysis
# [9] = Inhibition of Leishmania mexicana rCPB3.0 assessed as inhibition constant using Z-FR-AMC as substrate preincubated for 10 mins followed by substrate addition by Lineweaver-Burk double reciprocal plot analysis
# [10] = Inhibition of Leishmania mexicana rCPB3.0 H84Y mutant assessed as inhibition constant using Z-FR-AMC as substrate preincubated for 10 mins followed by substrate addition by Lineweaver-Burk double reciprocal plot analysis
# [11] = molecular target: Cysteine proteinase B (Leishmania mexicana) (UniProt P36400); test: Inhibition of Leishmania mexicana rCPB2.8 assessed as inhibition constant for uncompetitive inhibition using Z-FR-AMC as substrate preincubated for 10 mins followed by substrate addition by Lineweaver-Burk double reciprocal plot analysis
# Chain of Cysteine proteinase B (Leishmania mexicana) (P36400 126-443 limits assumed): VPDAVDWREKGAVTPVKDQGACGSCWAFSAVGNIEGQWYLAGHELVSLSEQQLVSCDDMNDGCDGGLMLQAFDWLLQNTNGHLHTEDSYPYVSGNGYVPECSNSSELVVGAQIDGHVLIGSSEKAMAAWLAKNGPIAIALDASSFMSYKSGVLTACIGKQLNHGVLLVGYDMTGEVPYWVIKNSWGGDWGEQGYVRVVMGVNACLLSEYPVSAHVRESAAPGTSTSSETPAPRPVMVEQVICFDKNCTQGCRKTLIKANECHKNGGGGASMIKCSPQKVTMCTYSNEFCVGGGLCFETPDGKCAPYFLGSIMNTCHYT
# Leishmania mexicana [12] = test: Inhibition of Leishmania mexicana rCPB3.0 assessed as inhibition constant for uncompetitive inhibition using Z-FR-AMC as substrate preincubated for 10 mins followed by substrate addition by Lineweaver-Burk double reciprocal plot analysis
# Leishmania mexicana [13] = test: Inhibition of Leishmania mexicana rCPB3.0 H84Y mutant assessed as inhibition constant for uncompetitive inhibition using Z-FR-AMC as substrate preincubated for 10 mins followed by substrate addition by Lineweaver-Burk double reciprocal plot analysis
Compound,Activity (SK-MEL-147 [1]),Activity (Jurkat [2]),EC50 (SK-MEL-147 [3]) [µM],EC50 (Jurkat [4]) [µM],IC50 (Cysteine proteinase B [5]) [µM],IC50 [6] [µM],IC50 [7] [µM],Ki (Cysteine proteinase B [8]) [µM],Ki [9] [µM],Ki [10] [µM],alphaKi [11] [µM],alphaKi (Leishmania mexicana [12]) [µM],alphaKi (Leishmania mexicana [13]) [µM]
CCOC(=O)c1cc([Se]c2ccc(F)cc2)c2cc(OC)ccc2n1,Active,Active,> 150,134,,,,,,,,,
COc1ccc2nc(-c3c(Cl)cccc3Cl)cc([Se]c3ccccc3)c2c1,Active,Active,> 150,17,,,,,,,,,
CCOC(=O)c1cc([Se]c2ccccc2C)c2cc(OC)ccc2n1,Active,Active,38.9,14.9,,,,,,,,,
CCOC(=O)c1cc([Se]c2ccccc2)c2cc(Cl)ccc2n1,Active,Active,47.1,53,,,,,,,,,
CCOC(=O)c1cc([Se]c2ccccc2)c2cc(Br)ccc2n1,Active,Active,12.4,20.8,,,,,,,,,
COc1ccc([Se]c2cc(-c3ccc(O)cc3)nc3ccc(OC)cc23)cc1,Active,Active,59.2,41.5,3.6,5.78,12.4,21.7,18.5,18.3,22.1,18.6,18.4
CCOC(=O)c1cc([Se]c2ccccc2)c2cc(OC)ccc2n1,Active,Active,33,102,,,,,,,,,
CCOC(=O)c1cc([Se]c2ccc3cc(OC)ccc3c2)c2cc(Cl)ccc2n1,Active,Active,16.2,29.2,,6.35,7.25,,,,,,
CCOC(=O)c1cc([Se]c2ccc(OC)cc2)c2cc(OC)ccc2n1,Active,Active,54.3 to 150,82.5 to 97.3,,,,,,,,,
CCOC(=O)c1cc([Se]Cc2ccccc2)c2cc(Br)ccc2n1,Active,Active,31.2,53.6,,,,,,,,,
COc1ccc2nc(-c3c(C)cccc3C)cc([Se]c3ccccc3)c2c1,Active,Active,37.3,26.9,12.9,7.44,20.4,,,,,,
